In this assay the target is CDK4 (Homo sapiens, UniProt P11802+Q16531). Briefly: HiBiT detection of HiBiT-tagged CDK4 protein level in MCF7 cells, 16 hours (Table 8). It counts as cell-based. Further details: expressed in transfected cells; host or cells: MCF7. The conditions noted are these: MCF7 cells stably expressing HiBiT tagged target proteins; for activity at 0.01 µM: 10 nM, read-out: % CDK4 Relative Level (10 nM); for activity at 0.1 µM: 100 nM, read-out: % CDK4 Relative Level (100 nM). On the procedure: HiBiT detection system quantitatively measures total amounts of HiBiT-tagged proteins using a luminescent based method. MCF7 cells stably expressing HiBiT tagged target proteins were treated with heterobifunctional compounds at indicated concentrations for 16 hours, then lysed with Nano-Glo HiBiT Lytic detection reagents.
Chain of CDK4 (P11802 whole entry): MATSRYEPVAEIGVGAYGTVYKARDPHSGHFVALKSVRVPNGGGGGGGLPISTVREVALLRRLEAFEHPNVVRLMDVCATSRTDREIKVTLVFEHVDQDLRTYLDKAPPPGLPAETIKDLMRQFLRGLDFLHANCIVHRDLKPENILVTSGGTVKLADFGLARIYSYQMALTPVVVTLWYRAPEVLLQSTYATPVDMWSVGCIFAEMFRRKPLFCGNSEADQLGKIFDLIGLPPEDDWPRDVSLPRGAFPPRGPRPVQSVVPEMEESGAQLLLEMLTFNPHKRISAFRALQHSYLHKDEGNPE
Chain of CDK4 (P24385 whole entry partner): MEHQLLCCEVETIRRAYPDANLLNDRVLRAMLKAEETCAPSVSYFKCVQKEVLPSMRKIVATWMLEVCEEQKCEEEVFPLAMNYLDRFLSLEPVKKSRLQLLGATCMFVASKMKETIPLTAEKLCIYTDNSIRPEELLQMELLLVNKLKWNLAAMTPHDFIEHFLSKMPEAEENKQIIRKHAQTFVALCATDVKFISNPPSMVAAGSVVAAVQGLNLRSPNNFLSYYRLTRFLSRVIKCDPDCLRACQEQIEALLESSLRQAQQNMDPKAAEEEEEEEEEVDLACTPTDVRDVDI
Chain of CDK4 (Q16531 2-1140 limits assumed): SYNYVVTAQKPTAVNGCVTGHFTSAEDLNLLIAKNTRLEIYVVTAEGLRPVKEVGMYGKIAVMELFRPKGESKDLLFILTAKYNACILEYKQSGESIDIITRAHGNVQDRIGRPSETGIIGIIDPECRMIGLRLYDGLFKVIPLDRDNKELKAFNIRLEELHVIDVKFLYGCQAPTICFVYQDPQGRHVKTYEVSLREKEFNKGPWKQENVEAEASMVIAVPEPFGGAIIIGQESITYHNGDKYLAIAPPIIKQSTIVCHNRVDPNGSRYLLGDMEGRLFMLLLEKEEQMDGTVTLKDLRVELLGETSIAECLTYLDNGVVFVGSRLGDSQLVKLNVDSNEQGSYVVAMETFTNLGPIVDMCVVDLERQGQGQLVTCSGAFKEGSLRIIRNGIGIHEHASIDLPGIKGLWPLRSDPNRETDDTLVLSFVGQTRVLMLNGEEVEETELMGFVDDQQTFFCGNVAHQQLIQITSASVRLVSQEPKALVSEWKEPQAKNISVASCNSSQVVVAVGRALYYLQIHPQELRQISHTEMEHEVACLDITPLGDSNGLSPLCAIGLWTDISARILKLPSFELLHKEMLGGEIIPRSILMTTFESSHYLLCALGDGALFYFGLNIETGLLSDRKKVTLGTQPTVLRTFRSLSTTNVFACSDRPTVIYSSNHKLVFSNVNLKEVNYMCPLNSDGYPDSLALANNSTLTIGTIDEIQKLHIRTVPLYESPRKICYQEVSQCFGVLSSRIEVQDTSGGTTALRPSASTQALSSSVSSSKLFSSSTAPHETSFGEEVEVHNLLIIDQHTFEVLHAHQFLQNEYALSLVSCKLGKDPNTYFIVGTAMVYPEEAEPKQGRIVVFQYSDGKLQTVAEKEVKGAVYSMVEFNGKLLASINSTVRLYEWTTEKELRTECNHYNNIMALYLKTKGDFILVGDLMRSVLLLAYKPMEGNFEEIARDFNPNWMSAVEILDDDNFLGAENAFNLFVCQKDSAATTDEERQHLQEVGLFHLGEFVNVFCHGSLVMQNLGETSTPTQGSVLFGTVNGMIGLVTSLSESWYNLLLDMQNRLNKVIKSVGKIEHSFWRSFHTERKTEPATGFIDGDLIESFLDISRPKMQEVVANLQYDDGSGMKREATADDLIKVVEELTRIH
For orientation: The HiBiT peptide binds its large partner to form an active luciferase.

Take `CNc1ccc(C(=O)Nc2ccc(N(C)C)nn2)c(NCCCCCCC(=O)NC2CCC(Nc3ncc4ccc(=O)n(C5CCCC5)c4n3)CC2)n1` (stereo not shown) [CPD-670, 2-((7-((4-((8-cyclopentyl-7-oxo-7,8-dihydropyrido[2,3-d]pyrimidin-2-yl)amino)cyclohexyl)amino)-7-oxoheptyl)amino)-N-(6-(dimethylamino)pyridazin-3-yl)-6-(methylamino)nicotinamide]: the activity at 0.01 µM is more than 85% and the activity at 0.1 µM is more than 85%.

Regarding `CNc1ccc(C(=O)Nc2ccc(N(C)C)nn2)c(NCCCCC(=O)NC2CCC3(CC2)CC(Nc2ncc4ccc(=O)n(C5CCCC5)c4n2)C3)n1` (stereo not shown) [CPD-675, 2-((5-((2-((8-cyclopentyl-7-oxo-7,8-dihydropyrido[2,3-d]pyrimidin-2-yl)amino)spiro[3.5]nonan-7-yl)amino)-5-oxopentyl)amino)-N-(6-(dimethylamino)pyridazin-3-yl)-6-(methylamino)nicotinamide], the activity at 0.01 µM was more than 85% and the activity at 0.1 µM was more than 85%.

For the compound `CNc1ccc(C(=O)Nc2ccc(N(C)C)nn2)c(NCCCCCNC(=O)CN2CCN(c3ccc(Nc4ncc(F)c(-c5cc(F)c6nc(C)n(C(C)C)c6c5)n4)nc3)CC2)n1` [CPD-661, N-(6-(dimethylamino)pyridazin-3-yl)-2-((5-(2-(4-(6-((5-fluoro-4-(4-fluoro-1-isopropyl-2-methyl-1H-benzo[d]imidazol-6-yl)pyrimidin-2-yl)amino)pyridin-3-yl)piperazin-1-yl)acetamido)pentyl)amino)-6-(methylamino)nicotinamide], the activity at 0.01 µM was more than 85% and the activity at 0.1 µM was more than 85%.

In the case of `CNc1ccc(C(=O)Nc2ccc(N(C)C)nn2)c(NCCCCCC(=O)N2CCN(c3ccc(Nc4ncc(F)c(-c5cc(F)c6nc(C)n(C(C)C)c6c5)n4)nc3)CC2)n1` [CPD-651, N-(6-(dimethylamino)pyridazin-3-yl)-2-((6-(4-(6-((5-fluoro-4-(4-fluoro-1-isopropyl-2-methyl-1H-benzo[d]imidazol-6-yl)pyrimidin-2-yl)amino)pyridin-3-yl)piperazin-1-yl)-6-oxohexyl)amino)-6-(methylamino)nicotinamide], the activity at 0.01 µM is more than 85% and the activity at 0.1 µM was more than 85%.

For the compound `CNc1ccc(C(=O)Nc2ccc(N(C)C)nn2)c(NCCCCCCNC(=O)CN2CCN(c3ccc(Nc4ncc(F)c(-c5cc(F)c6nc(C)n(C(C)C)c6c5)n4)nc3)CC2)n1` [CPD-662, N-(6-(dimethylamino)pyridazin-3-yl)-2-((6-(2-(4-(6-((5-fluoro-4-(4-fluoro-1-isopropyl-2-methyl-1H-benzo[d]imidazol-6-yl)pyrimidin-2-yl)amino)pyridin-3-yl)piperazin-1-yl)acetamido)hexyl)amino)-6-(methylamino)nicotinamide], the activity at 0.01 µM is more than 85% and the activity at 0.1 µM is more than 85%.

With `CNc1ccc(C(=O)Nc2ccc(N(C)C)nn2)c(NCC(=O)N2CCN(Cc3ccc(Nc4ncc(F)c(-c5cc(F)c6nc(C)n(C(C)C)c6c5)n4)nc3)CC2)n1` [CPD-656, N-(6-(dimethylamino)pyridazin-3-yl)-2-((2-(4-((6-((5-fluoro-4-(4-fluoro-1-isopropyl-2-methyl-1H-benzo[d]imidazol-6-yl)pyrimidin-2-yl)amino)pyridin-3-yl)methyl)piperazin-1-yl)-2-oxoethyl)amino)-6-(methylamino)nicotinamide], the activity at 0.01 µM is more than 85% and the activity at 0.1 µM is more than 85%.

For the compound `CNc1ccc(C(=O)Nc2ccc(N(C)C)nn2)c(NCCC(=O)N2CCN(c3ccc(Nc4ncc5cc6n(c5n4)C4(CCCCC4)CNC6=O)nc3)CC2)n1` [CPD-632, N-(6-(dimethylamino)pyridazin-3-yl)-6-(methylamino)-2-((3-oxo-3-(4-(6-((6′-oxo-7′,8′-dihydro-6′H-spiro[cyclohexane-1,9′-pyrazino[1′,2′:1,5]pyrrolo[2,3-d]pyrimidin]-2′-yl)amino)pyridin-3-yl)piperazin-1-yl)propyl)amino)nicotinamide], the activity at 0.01 µM was more than 85% and the activity at 0.1 µM is more than 85%.

As for `CNc1ccc(C(=O)Nc2ccc(N(C)C)nn2)c(NCCOCCC(=O)N2CCN(Cc3ccc(Nc4ncc(F)c(-c5cc(F)c6nc(C)n(C(C)C)c6c5)n4)nc3)CC2)n1` [CPD-606, N-(6-(dimethylamino)pyridazin-3-yl)-2-((2-(3-(4-((6-((5-fluoro-4-(4-fluoro-1-isopropyl-2-methyl-1H-benzo[d]imidazol-6-yl)pyrimidin-2-yl)amino)pyridin-3-yl)methyl)piperazin-1-yl)-3-oxopropoxy)ethyl)amino)-6-(methylamino)nicotinamide], the activity at 0.01 µM is more than 85% and the activity at 0.1 µM is more than 85%.

Turning to `CNc1ccc(C(=O)Nc2ccc(N(C)C)nn2)c(NCCCCCC(=O)NC2CCC(Nc3ncc4ccc(=O)n(C5CCCC5)c4n3)CC2)n1` (stereo not shown) [CPD-669, 2-((6-((4-((8-cyclopentyl-7-oxo-7,8-dihydropyrido[2,3-d]pyrimidin-2-yl)amino)cyclohexyl)amino)-6-oxohexyl)amino)-N-(6-(dimethylamino)pyridazin-3-yl)-6-(methylamino)nicotinamide], the activity at 0.01 µM is more than 85% and the activity at 0.1 µM was more than 85%.

Consider `CNc1ccc(C(=O)Nc2ccc(N(C)C)nn2)c(NCCCCNC(=O)CN2CCN(c3ccc(Nc4ncc(F)c(-c5cc(F)c6nc(C)n(C(C)C)c6c5)n4)nc3)CC2)n1` [CPD-660, N-(6-(dimethylamino)pyridazin-3-yl)-2-((4-(2-(4-(6-((5-fluoro-4-(4-fluoro-1-isopropyl-2-methyl-1H-benzo[d]imidazol-6-yl)pyrimidin-2-yl)amino)pyridin-3-yl)piperazin-1-yl)acetamido)butyl)amino)-6-(methylamino)nicotinamide], for which the activity at 0.01 µM was more than 85% and the activity at 0.1 µM is more than 85%.

Turning to `CNc1ccc(C(=O)Nc2ccc(N(C)C)nn2)c(NCCCCCCCC(=O)N2CCN(Cc3ccc(Nc4ncc(F)c(-c5cc(F)c6nc(C)n(C(C)C)c6c5)n4)nc3)CC2)n1` [CPD-605, N-(6-(dimethylamino)pyridazin-3-yl)-2-((8-(4-((6-((5-fluoro-4-(4-fluoro-1-isopropyl-2-methyl-1H-benzo[d]imidazol-6-yl)pyrimidin-2-yl)amino)pyridin-3-yl)methyl)piperazin-1-yl)-8-oxooctyl)amino)-6-(methylamino)nicotinamide], the activity at 0.01 µM was more than 85% and the activity at 0.1 µM was more than 85%.

For `CNc1ccc(C(=O)Nc2ccc(N(C)C)nn2)c(NCCC(=O)NC2CCC(Nc3ncc4ccc(=O)n(C5CCCC5)c4n3)CC2)n1` (stereo not shown) [CPD-666, 2-((3-((4-((8-cyclopentyl-7-oxo-7,8-dihydropyrido[2,3-d]pyrimidin-2-yl)amino)cyclohexyl)amino)-3-oxopropyl)amino)-N-(6-(dimethylamino)pyridazin-3-yl)-6-(methylamino)nicotinamide], the activity at 0.01 µM is more than 85% and the activity at 0.1 µM is more than 85%.

Consider `CC(C)Nc1ccc(C(=O)Nc2ccc(N(C)C)nn2)c(NC2CC3(CC(NC(=O)CN4CCN(Cc5ccc(Nc6ncc7cc(C(=O)N(C)C)n(C8CCCC8)c7n6)nc5)CC4)C3)C2)n1` (stereo not shown) [CPD-562, 7-cyclopentyl-2-((5-((4-(2-((6-((3-((6-(dimethylamino)pyridazin-3-yl)carbamoyl)-6-(isopropylamino)pyridin-2-yl)amino)spiro[3.3]heptan-2-yl)amino)-2-oxoethyl)piperazin-1-yl)methyl)pyridin-2-yl)amino)-N,N-dimethyl-7H-pyrrolo[2,3-d]pyrimidine-6-carboxamide], for which the activity at 0.01 µM was more than 85% and the activity at 0.1 µM is more than 85%.

Regarding `CNc1ccc(C(=O)Nc2ccc(N(C)C)nn2)c(NCCNC(=O)CN2CCN(c3ccc(Nc4ncc(F)c(-c5cc(F)c6nc(C)n(C(C)C)c6c5)n4)nc3)CC2)n1` [CPD-658, N-(6-(dimethylamino)pyridazin-3-yl)-2-((2-(2-(4-(6-((5-fluoro-4-(4-fluoro-1-isopropyl-2-methyl-1H-benzo[d]imidazol-6-yl)pyrimidin-2-yl)amino)pyridin-3-yl)piperazin-1-yl)acetamido)ethyl)amino)-6-(methylamino)nicotinamide], the activity at 0.01 µM was more than 85% and the activity at 0.1 µM was more than 85%.

On to `CNc1ccc(C(=O)Nc2ccc(N(C)C)nn2)c(NCCCCCCCNC(=O)CN2CCN(Cc3ccc(Nc4ncc(F)c(-c5cc(F)c6nc(C)n(C(C)C)c6c5)n4)nc3)CC2)n1` [CPD-613, N-(6-(dimethylamino)pyridazin-3-yl)-2-((7-(2-(4-((6-((5-fluoro-4-(4-fluoro-1-isopropyl-2-methyl-1H-benzo[d]imidazol-6-yl)pyrimidin-2-yl)amino)pyridin-3-yl)methyl)piperazin-1-yl)acetamido)heptyl)amino)-6-(methylamino)nicotinamide], for which the activity at 0.01 µM was more than 85% and the activity at 0.1 µM was more than 85%.

On to `CNc1ccc(C(=O)Nc2ccc(N(C)C)nn2)c(NCCCCCC(=O)NC2CCC3(CC2)CC(Nc2ncc4ccc(=O)n(C5CCCC5)c4n2)C3)n1` (stereo not shown) [CPD-676, 2-((6-((2-((8-cyclopentyl-7-oxo-7,8-dihydropyrido[2,3-d]pyrimidin-2-yl)amino)spiro[3.5]nonan-7-yl)amino)-6-oxohexyl)amino)-N-(6-(dimethylamino)pyridazin-3-yl)-6-(methylamino)nicotinamide], for which the activity at 0.01 µM was more than 85% and the activity at 0.1 µM was more than 85%.

Take `CC(=O)c1c(C)c2cnc(Nc3ccc(CN4CCC(CC(=O)NC5CC6(C5)CC(Nc5nc(NC(C)C)ccc5C(=O)Nc5ccc(N(C)C)nn5)C6)CC4)cn3)nc2n(C2CCCC2)c1=O` (stereo not shown) [CPD-593, 2-((6-(2-(1-((6-((6-acetyl-8-cyclopentyl-5-methyl-7-oxo-7,8-dihydropyrido[2,3-d]pyrimidin-2-yl)amino)pyridin-3-yl)methyl)piperidin-4-yl)acetamido)spiro[3.3]heptan-2-yl)amino)-N-(6-(dimethylamino)pyridazin-3-yl)-6-(isopropylamino)nicotinamide]: the activity at 0.01 µM is more than 85% and the activity at 0.1 µM was more than 85%.

For the origin of these results see US20260297081A1, “COMPOUNDS AND METHODS OF TREATING CANCERS” (Cullgen Inc., priority 2023, published 2026).
